From article PMC3266923, “Augmenter of Liver Regeneration (alr) Promotes Liver Outgrowth during Zebrafish Hepatogenesis” (PLoS ONE, 2012)

How the values were obtained:
[1] = target: T1, zebrafish Alr (Danio rerio, UniProt A4QNU9); test: Ellman's reagent (free thiol) time course; assay type: biochemical; conditions: room temperature
T1 construct: gene gfer; full-length ORF (191 residues) in pET28b, N-terminal His-tag, expressed in E. coli BL21-DE3, Ni-NTA purified under native condition; about 23 kDa monomer, disulfide-linked dimer

[2] = target: T1, zebrafish Alr; test: UV-visible absorption spectrum of purified protein; assay type: binding; conditions: 15 uM protein, free FAD as reference; FAD co-purified from E. coli
[3] = target: T2, zebrafish Alr (Danio rerio, UniProt A4QNU9, C131S); test: UV-visible absorption spectrum of purified protein; assay type: binding; conditions: 15 uM protein, free FAD as reference; FAD co-purified from E. coli
T2 construct: gene gfer; full-length ORF (191 residues) in pET28b, N-terminal His-tag, expressed in E. coli BL21-DE3, Ni-NTA purified under native condition; about 23 kDa monomer, disulfide-linked dimer
T2 sequence (A4QNU9 1-191 C131S): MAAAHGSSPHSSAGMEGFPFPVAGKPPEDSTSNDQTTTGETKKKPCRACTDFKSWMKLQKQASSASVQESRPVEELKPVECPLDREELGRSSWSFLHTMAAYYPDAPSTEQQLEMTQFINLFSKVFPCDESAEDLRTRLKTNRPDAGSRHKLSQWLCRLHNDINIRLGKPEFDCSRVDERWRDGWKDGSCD

T1 sequence (A4QNU9 1-191): as the sequence (A4QNU9 1-191 C131S) above, with S131C counted along it

SMILES	Ellman's reagent (free thiol) time course [1]	UV-visible absorption spectrum of purified protein [2]	UV-visible absorption spectrum of purified protein [3]
OC(CS)C(O)CS (stereo not drawn) [DTT]	Zebrafish Alr oxidized DTT efficiently, while Alr^C131S completely lost this activity	–	–
Cc1cc2nc3c(=O)[nH]c(=O)nc-3n(C[C@H](O)[C@H](O)[C@H](O)COP(=O)(O)OP(=O)(O)OC[C@H]3O[C@@H](n4cnc5c(N)ncnc54)[C@H](O)[C@@H]3O)c2cc1C [FAD]	–	Zebrafish Alr also binds FAD as determined by spectroscopic absorption	wild type Alr protein and mutant Alr^C131S protein are characteristic of the FAD moiety
